Experiments:
MCF-7/tRXRα tumour = experiment: MCF-7/tRXRα xenograft in nude mice, tumour growth; format: in vivo; conditions: K-80003 20 mg kg^−1 i.p. daily for 12 days, n=6 in each group
Procedure: (§1) For nude mice xenograft study, Myc-RXRα and Myc-tRXRα cloned into pcdna3.0 vector were stably transfected into MCF-7 cells, and the resulting stable clones and control clone (2 × 10^6 cells in 100 μl) were injected subcutaneously into nude mice (BALB/c, SPF grade, 16–18 g, 4–5-week old). For drug treatment, mice were intraperitoneally injected (i.p.) daily with K-80003 (20 mg kg^−1) diluted in Tween-80 or vehicle (tween-80). Body weight and tumour size were measured every 2 days. Mice were killed after 12-day drug treatment and the tumours removed for various assessments. For MMTV-PyMT transgenic mouse study, 4-week old female mice of a transgenic mouse on the FVB/N genetic background expressing the PyMT oncogene under the control of MMTV LTR promoter[40] were fed with diet containing with or without K-80003 (100 mg kg^−1) for 4 weeks. Estimation of tumour appearance was performed by palpation once every day. Tumour tissues of left thoracic mammary glands were excised after the treatment. Portion of tissues was used to prepare extracts for western blotting, while the rest was fixed in 4% phosphate-buffered paraformaldehyde, and used for immunohistochemical staining using anti-Ki67 antibody and immunostaining using Δ197 anti-RXRα antibody. All experimentations and animal usage were performed and approved by the Animal Care and Use Committee of Xiamen University.

tRXRα = experiment: BS3 crosslinking, transfected tRXRα; format: cell-based
Procedure: (§2) Cell lysates were then prepared and incubated with bis[sulfosuccinimidyl] suberate (BS3, Pierce) dissolved in dimethyl sulfoxide to a final concentration of 1 mM. The reactions were stopped with protein gel loading buffer. Samples were resolved by SDS/PAGE in 8% acrylamide gels and protein bands were visualized by western blotting.

RXRα [1] = experiment: MMTV-PyMT tumours, RXRα immunostaining; format: in vivo, MMTV-PyMT mice; conditions: diet with K-80003 (100 mg kg^−1) for 4 weeks; Δ197 anti-RXRα antibody
Procedure: (§3) Cells mounted on glass slides or tumour tissue frozen sections (5-μm-thick) were washed with PBS and fixed in 4% paraformaldehyde (PFA) for 15 min and permeabilized with PBS containing 0.1% Triton X-100 for 15 min. Fixed cells or tumour tissues were blocked with 5 mg ml^−1 BSA in PBS for 30 min at room temperature, followed with incubation with primary antibodies for 3 h and secondary antibodies at room temperature for 1 h and co-stained with 4′6′-diamidino-2-phenylindole (DAPI) to visualize nuclei. The images were taken under an LSM-510 confocal laser scanning microscope system (Carl Zeiss).
For nude mice xenograft study, Myc-RXRα and Myc-tRXRα cloned into pcdna3.0 vector were stably transfected into MCF-7 cells, and the resulting stable clones and control clone (2 × 10^6 cells in 100 μl) were injected subcutaneously into nude mice (BALB/c, SPF grade, 16–18 g, 4–5-week old). For drug treatment, mice were intraperitoneally injected (i.p.) daily with K-80003 (20 mg kg^−1) diluted in Tween-80 or vehicle (tween-80). Body weight and tumour size were measured every 2 days. Mice were killed after 12-day drug treatment and the tumours removed for various assessments. […]

tRXRα/F313A = experiment: BS3 crosslinking, tRXRα/F313A; format: cell-based; conditions: MCF-7 cells, 9-cis-RA (10^−7 M) or K-80003 (5 × 10^−6 M) for 6 h
Procedure: as §2

MMTV-PyMT mammary tumour = experiment: MMTV-PyMT tumours, Ki-67 immunostaining; format: in vivo, MMTV-PyMT mice; conditions: diet with K-80003 (100 mg kg^−1) for 4 weeks; Ki-67 positive cells scored from 500 cells
Procedure: as §1, with “Portion of tissues was used to prepare extracts for western blotting, while the rest was fixed in 4% phosphate-buffered paraformaldehyde, and used for immunohistochemical staining using anti-Ki67 antibody and immunostaining using Δ197 anti-RXRα antibody. All experimentations and animal usage were performed and approved by the Animal Care and Use Committee of Xiamen University.” left out
(a) Expression of tRXRα in MMTV-PyMT mammary tumors analyzed by Western blotting using ΔN197 anti-RXRα antibody.
(b) Tumor sections from MMTV-PyMT mice fed with vehicle or K-80003 were immunostained with anti-Ki-67 antibody. Ki-67 positive cells were scored from 500 cells. […]

RXRα [2] = experiment: BS3 crosslinking, transfected full-length RXRα; format: cell-based; conditions: HepG2 cells; K-80003 (5 × 10^−6 M) for 6 h; BS3 1 mM; western blotting
Procedure: as §2

tRXRα/L433D = experiment: Subcellular localization of tRXRα/L433D, immunostaining; format: cell-based; conditions: MCF-7 cells; K-80003 (5 × 10^−6 M) for 3 h, then TNFα (10 ng ml^−1) for 30 min
Procedure: as §3

RXRα-LBD = biological target: T1, RXRα-LBD (Homo sapiens, UniProt P19793); experiment: Non-denaturing gel electrophoresis, oligomeric state of RXRα-LBD; format: biochemical; conditions: purified RXRα-LBD; 9-cis-RA (0.5 μM) and/or K-80003 (20 μM), 3 h at 4 °C
T1 construct: The human RXRα LBD (residues Thr223 to Thr462); made in house; host or cells: Escherichia coli BL21
T1 sequence (P19793 223-462): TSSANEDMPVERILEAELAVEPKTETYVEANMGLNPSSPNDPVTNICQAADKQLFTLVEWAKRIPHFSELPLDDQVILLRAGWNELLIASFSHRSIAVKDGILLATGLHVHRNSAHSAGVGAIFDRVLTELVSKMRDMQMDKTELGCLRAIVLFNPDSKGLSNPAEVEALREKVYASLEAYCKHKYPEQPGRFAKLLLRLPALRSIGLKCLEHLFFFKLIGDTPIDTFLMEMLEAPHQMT
Procedure: The human RXRα LBD (residues Thr223 to Thr462) cloned as an N-terminal histidine-tagged fusion protein in pET15b expression vector was expressed in Escherichia coli BL21 strain (Stratagene). After sonication, cell extract was incubated with the His60 Ni Superflow resin, and His-tagged RXRα-LBD-resin complexes were washed, eluted and concentrated to 5 mg ml^−1 for subsequent trails. For crystallization experiment, bovine thrombin (Sigma) was used to cleave the His tag from the purified His-tagged RXRα-LBD. The resulting His tag was removed on the Resource-Q column (GE) using 0.1–1 M NaCl gradient and the Tris-Cl pH 8 buffer. RXRα-LDB was further purified using gel filtration on a Superdex 200 2660 column (GE) pre-equilibrated with the 75 mM NaCl, 20 mM Tris-Cl buffer (pH 8).

CC1=C(CC(=O)O)c2cc(F)ccc2/C1=C\c1ccc(C(C)C)cc1 [K-80003]
effect on tRXRα-promoted growth of MCF-7 tumour (MCF-7/tRXRα tumour): suppressed | tetramerization of tRXRα with cotransfected RXRα A/B domain (tRXRα; HEK293T cells, tRXRα together with RXRα-A/B, K-80003, BS3, one of three similar experiments): completely suppressed the effect of K-80003 on promoting tRXRα tetramerization | tetramerization of tRXRα (tRXRα; HepG2 cells, K-80003 (5 × 10^−6 M) for 6 h, BS3 1 mM, western blotting): effectively promoted the formation of tRXRα tetramers | RXRα staining localization in PyMT tumours (RXRα [1]): mainly found in the nucleus | oligomeric state of tRXRα/F313A (tRXRα/F313A): strong tetrameric species of tRXRα/R316E but not tRXRα/F313A independent of the presence of 9-cis-RA or K-80003 | tumour cell proliferation (Ki-67) (MMTV-PyMT mammary tumour): inhibition of tumour cell proliferation | tetramerization of full-length RXRα (RXRα [2]): failed to promote the tetramerization of the full-length RXRα | effect on cytoplasmic colocalization of p85α with tRXRα/L433D (tRXRα/L433D): not affected by K-80003 | effect on RXRα-LBD oligomeric state (RXRα-LBD): induced an accumulation of tetramers
